This is an account of results in US12326385B2, “Cell-permeable fluorogenic fluorophores” (MAX-PLANCK-GESELLSCHAFT ZUR FÖRDERUNG DER WISSENSCHAFTEN E. …, priority 2018, dated 2025).

Marks after values point to notes of the source that are not given here. Some results are limits rather than exact numbers.

Series [1] is described as follows: UV-Vis and fluorescence spectroscopy of free dye or probe in buffer or SDS. It counts as physicochemical. Particulars: for Φ / ε^SDS: 0.1% SDS in HEPES buffer (pH 7.3); for ε: HEPES buffer (pH 7.3). The method, then:
UV-Vis and Fluorescence Spectroscopy
Spectroscopy was performed using 96-well plate (Thermo Fisher) with optical bottom. All measurements were taken at ambient temperature (25±2° C.). Absorption and fluorescence spectra were recorded on Spark® microplate reader (Tecan). Maximum absorption wavelength (λabs), and maximum emission wavelength (λem) were taken in 10 mM HEPES, pH 7.3 buffer unless otherwise noted; reported values for ε are averages (n=3). Normalized spectra are shown for clarity.
(§1) SDS (10% in 10 mM HEPES) was added with dilution of 100 folds as a control group. Absorbance and fluorescence measurements were performed in 96-well plate (Thermos Fisher) with optical bottom.

In series [2] the test system is U2OS FlpIn Halo-SNAP-NLS expressing cells. The series is described as follows: No-wash live-cell confocal imaging, nuclear versus cytosol signal. The series is classed as cell-based. Particulars: for signal and background in no-wash live-cell imaging: no washing; for Fnuc./Fcyt.: average ratio between nuclear signal (U2OS FlpIn Halo-SNAP-NLS expressing cells) and cytosol signal (normal U2OS cell), ± s.e.m. An excerpt: Self-labeling protein tags such as SNAP-tag and HaloTag are an efficient approach to attach synthetic fluorophores to proteins in living cells. The main challenge when using these tags for live-cell imaging is the low cell permeability of most fluorescent probes used for labeling and high background signal resulting from their unspecific binding. SNAP-tag fusion proteins can be specifically labeled with different fluorophores using appropriate O^6-benzlyguanine derivatives. A 6-TAMRA based probe (150) for SNAP-tag has been previously introduced for live-cell imaging, but its low cell-permeability and lack of fluorogenicity requires the use of high concentrations (5 μM) and repeated washing steps to remove excess and non-specifically bound probe. To address these problem, the inventors coupled fluorophores 132-135 to O^6-benzylguanine to obtain probes 152, 154, 156, and 158. […] The inventors then examined the performance of probes 150, 152, 154, 156, and 158 in live-cell imaging, in which U2OS cells stably expressing a nuclear localized SNAP-Halo fusion protein were co-cultured with regular U2OS cells not expressing any protein tags. […] Furthermore, the kinetics of labeling of nuclear localized SNAP-tag with MaP555-SNAP were much faster than those of control […]. The inventors then prepared the corresponding 6-TAMRA-based probes 151, 153, 155, 157, and 159 for HaloTag. As for SNAP-tag, the probe with the largest enhancement in absorbance (16-fold) and fluorescence intensity (35-fold) in in vitro assays was based on the N,N-dimethylsulfamide derivative 159 (abbreviated as MaP555-Halo in the following). […] The excellent performance of MaP555-SNAP and MaP555-Halo in live-cell imaging experiments support the inventors' assumption that establishing a dynamic equilibrium between the fluorescent zwitterion and the more hydrophobic spirolactam enables the generation of highly cell-permeable and fluorogenic probes for live-cell imaging.
Generation of U2OS FlpIn Halo-SNAP-NLS Cell Lines
The Flp-In™ System (ThermoFisher Scientific) was used to generated U2OS FlpIn Halo-SNAP-NLS expressing cells. pcDNA5-FRT-Halo-SNAP-NLS and pOG44 were co-transfected into the host cell line U2OS FLpIn (Malecki et al. Molecular and Cellular Biology 26, 4642 (2006)). Homologous recombination between the FRT sites in pcDNA5-FRT-Halo-SNAP-NLS and on the host cell chromosome, catalysed by the Flp recombinase expressed from pOG44, produced the U2OS FlpIn Halo-SNAP-NLS stably expressing cells.
Live-Cell Confocal Imaging
U2OS FlpIn Halo-SNAP-NLS expressing cells were grown in 96-well plate (Thermos Fisher) with optical bottom at 37° C. in a humidified 5% (vol/vol) CO2 environment. 50-500 nM probes and 2 μM verapamil were added and incubated for 1 h in DMEM media (Evrogen) containing 10% FBS. The cells were directly used to image without washing. Meanwhile, another group was imaged after being washed 2 times for 5 min with 1× phosphate buffered saline (PBS, pH 7.4) and DMEM supplemented with 10% FBS. Imaging was performed using Leica TCS SP8 confocal microscope. TMR- and Rhodamine B—, and Rhodamine 110-based probes were excited at 540 nm and the fluorescence signal was collected from 560-700 nm. Semi-Rhodamine-based probes were excited at 650 nm and the fluorescence signal was […] from 670-760 nm. Images were processed with Fiji (http://fiji.sc/wiki/index.php/Fiji) to obtain MIP (maximum intensity projections)

Series [3] concerns SNAP-Halo-tag. The series is described as follows: Increase in absorbance and fluorescence on binding to SNAP-HaloTag protein in vitro. The series is classed as biochemical. The conditions noted are these: for Φ / ε^protein / λabs / λem: binding with SNAP-Halo-tag; for F/F0: ± s.e.m. The procedure:
Measurement of Increase in Absorbance and Fluorescence.
SNAP-HaloTag protein were used as a 85 μM-200 μM solution in 75 mM NaCl, 50 mM TRIS-HCl, pH 7.4 with 50% v/v glycerol (TBS-glycerol). SNAPTag and HaloTag based fluorogenic probes were diluted to 1.0-2.0 μM in 10 mM HEPES, pH 7.3. Then an aliquot of SNAPTag/HaloTag protein (1.5-2.0 equiv) was added and the resulting mixture was incubated until consistent absorbance signal was observed (˜60 min).
as §1

A short description of series [4]: UV absorbance spectra in water-dioxane mixtures (D50). It counts as physicochemical. The conditions noted are these: dioxane-H2O mixture (v/v: 90/10-10/90); dielectric constant at half-maximal zwitterion absorbance. The source says:
The inventors' efforts to improve the permeability and fluorogenicity of rhodamine derivatives for live-cell imaging focused on increasing the propensity of rhodamines to form the spirocyclic, non-fluorescent form without affecting the spectroscopic properties of the parental molecule. The inventors initially considered replacing the carboxylic acid responsible for formation of the spirolactone with an amide. However, such rhodamine derivatives have been reported to strongly favor spirolactams at physiological pH, making them unsuitable for live-cell imaging. The inventors therefore attempted to destabilize the spirolactam by attaching different electron-withdrawing groups to the underlying amides. Specifically, the inventors converted 6-carboxytetramethylrhodamine (6-TAMRA), a widely used fluorophore with good photophysical properties, into the corresponding acyl cyanamide (132), acyl sulfonamide (133) and acyl sulfamide (134 and 135), (FIG. 32c). The acyl cyanamide of rhodamine B was previously reported to exist as a fluorescent zwitterion at physiological pH. Acyl sulfonamides and acyl sulfamides are used in medicinal chemistry as anionic pharmacophores. Amides 132-135 were prepared in three simple steps from commercially available 6-TAMRA (FIG. 32c). To investigate the propensity of these amides to form the corresponding spirolactams, the inventors measured their absorbance spectra in water-dioxane mixtures with […]. The equilibrium between the zwitterionic and spirocyclic form can then be characterized by the D50 value, which is defined as the dielectric constant at which absorbance of the fluorescent zwitterion is decreased by half compared to the highest recorded absorbance value measured in dioxane-water mixtures. […] In comparison, the D50 value of TAMRA is around 10 showing that in aqueous solution TAMRA exists predominantly in its open form and TAMRA-based probes are usually not fluorogenic. The measured D50 values of amides 132-135 ranged from 32 to around 60 (FIG. 32d), which indicates the potential of these fluorophores for the generation of permeable and fluorogenic probes. […] The possibility to tune the equilibrium between the open and closed form of the fluorophore by varying the substituents on the amide is an important feature of this approach.
Measurements of UV Absorbance Spectra in Water-Dioxane Mixtures
Solutions of 5 μM Rhodamine B, RhB-CH3 (201, Z=CH3), RhB-Ben (201, Z=CH2Ph), RhB-CN (201, Z=CN), RhB-SCH3 (115), RhB-SNH2 (116), RhB-SNMe2 (117), RhB-CONH2 (118), WS1-SCF3, (119) WS1-SCH3 (120), WS1-CN (121), WS1-SNH2 (122), WS1-SO (123), WS1-UREA (124) in water-dioxane mixtures containing 10%, 20%, 30%, 40%, 50%, 60%, 70%, 80% and 90% of dioxane (by volume) were prepared. The absorbance spectra were recorded using a Spark® microplate reader (Tecan). The spectra were integrated from 400 to 700 nm for Rhodamine B-based fluorophores and from 350 to 750 nm for WS1-based fluorophores using the software Prism 7. Normalized integrals were plotted against dielectric constant of water-dioxane mixture.

The mark [5] stands for this setting: ratio of fluorescence intensities at 720 nm in the presence and absence of SNAP-Halo-tag.
Setting [6] is: ratio of fluorescence intensities at 580 nm in the presence and absence of SNAP-Halo-tag.
Setting [7] is: upon binding to HaloTag, in vitro.

`CN1CCc2cc3c(cc21)[Si](C)(C)c1cc2c(cc1C31OC(=O)c3ccc(C(=O)NCCOCCOCCCCCCCl)cc31)CCN2C` [compound 37, reference compound]: in series [1], the Φ amounted to 0.25, the “ε^SDS” value is 85,000^c M^−1cm^−1 and the ε is given as 38,000 M^−1cm^−1. In addition, the “signal and background in no-wash live-cell imaging” value in series [2] (U2OS cells) is “relatively high background signal”. Besides, the Fnuc./Fcyt. in series [2] is listed as 6.7 ± 1.5^f. For the same molecule, in series [3], the Φ is 0.27, the “ε^protein” value is 83,000 M^−1cm^−1, the λabs stood at 695 nm and the λem came to 718 nm. The “fluorogenicity on binding to tag or target protein” value in series [3] (in vitro) is on record as “only modest fluorogenicity”. The F/F0 in series [3] (setting [5]) was 7.5 ± 0.2^e.
As to `Cl.N=c1ccc2c(-c3ccccc3C(=O)O)c3ccc(N)cc3oc-2c1` [R110, Rhodamine 110, reference compound], the D50 in series [4] is reported as 15.
Turning to `CN(C)c1ccc2c(c1)Oc1cc(N(C)C)ccc1C21c2cc(C(=O)NCc3ccc(COc4nc(N)nc5[nH]cnc45)cc3)ccc2C(=O)N1C#N` [compound 152], in series [1], the Φ was determined as 0.58, the “ε^SDS” value is 82,000 M^−1cm^−1 and the ε is on record as 18,000 M^−1cm^−1. In series [2], the Fnuc./Fcyt. is 8.1 ± 0.9^f. Further, in series [3], the Φ is 0.33, the “ε^protein” value was 68,000 M^−1cm^−1, the λabs turned out to be 558 nm and the λem amounted to 580 nm. In addition, the F/F0 in series [3] (setting [6]) is 18 ± 2.6^e.
As for `CN1CCc2cc3c(cc21)[Si](C)(C)c1cc2c(cc1C31c3cc(C(=O)NCCOCCOCCCCCCCl)ccc3C(=O)N1C#N)CCN2C` [compound 168], in series [1], the Φ was determined as 0.18, the “ε^SDS” value is on record as 12,000^c M^−1cm^−1 and the ε came to 340 M⁻¹ cm⁻¹. In addition, in series [2], the Fnuc./Fcyt. was 47 ± 3.4^f. Besides, in series [2] (no-wash live-cell imaging, U2OS cells, 250 nM for MaP555-SNAP and MaP700-Halo), the “nuclei to cytosol signal ratio (Fnuc/Fcyt)” value was 47. The “time to staining / saturation / completion of labeling” value in series [2] (nuclear localized HaloTag in U2OS cells, 250 nM for MaP510-Halo and MaP700-Halo) was at most 10 min. In addition, in series [3], the Φ was found to be 0.24, the “ε^protein” value is recorded as 52,000 M^−1cm^−1, the λabs came out at 700 nm and the λem came to 720 nm. For the same molecule, the F/F0 in series [3] (setting [5]) is recorded as 650 ± 5.8^e. Besides, in series [3] (setting [7]), the increase in absorbance is reported as 150 fold and the “increase in fluorescence intensity” value amounted to 650 fold.
Regarding `CN(C)c1ccc2c(-c3cc(C(=O)NCc4ccc(COc5nc(N)nc6[nH]cnc56)cc4)ccc3C(=O)[O-])c3ccc(=[N+](C)C)cc-3oc2c1` [compound 150, reference compound], in series [1], the Φ is given as 0.61, the “ε^SDS” value is 82,000 M^−1cm^−1 and the ε is given as 22,000 M^−1cm^−1. Besides, in series [2] (U2OS cells), the “signal and background in no-wash live-cell imaging” value was “barely detectable signal”. The Fnuc./Fcyt. in series [2] is recorded as 1.8 ± 0.1^f. Moreover, in series [3], the Φ is 0.42, the “ε^protein” value was 66,000 M^−1cm^−1, the λabs was found to be 555 nm and the λem is 578 nm. Moreover, the F/F0 in series [3] (setting [6]) is 7.9 ± 0.2^e.
With `CN(C)c1ccc2c(c1)Oc1cc(N(C)C)ccc1C21c2cc(C(=O)NCCOCCOCCCCCCCl)ccc2C(=O)N1S(N)(=O)=O` [compound 157], in series [1], the Φ is 0.65, the “ε^SDS” value is recorded as 91,000 M^−1cm^−1 and the ε was 9,600 M^−1cm^−1. Also, the Fnuc./Fcyt. in series [2] is on record as 14 ± 0.7^f. Further, in series [3], the Φ worked out at 0.56, the “ε^protein” value is on record as 87,000 M^−1cm^−1, the λabs amounted to 558 nm and the λem turned out to be 580 nm. Also, in series [3] (setting [6]), the F/F0 is reported as 19 ± 3.2^e.
For the molecule `CN(C)c1ccc2c(c1)Oc1cc(N(C)C)ccc1C21c2cc(C(=O)NCc3ccc(COc4nc(N)nc5[nH]cnc45)cc3)ccc2C(=O)N1S(N)(=O)=O` [compound 156], in series [1], the Φ is listed as 0.62, the “ε^SDS” value is listed as 89,000 M^−1cm^−1 and the ε was 9,800 M^−1cm^−1. Also, the Fnuc./Fcyt. in series [2] is reported as 9.8 ± 0.8^f. Also, in series [3], the Φ was 0.46, the “ε^protein” value was 57,000 M^−1cm^−1, the λabs stood at 557 nm and the λem came out at 578 nm. In addition, the F/F0 in series [3] (setting [6]) is listed as 13 ± 2.4^e.
